Reference: patent US20260356809A1 (The United States of America, as represented by the …, priority 2022, published 2026)
Like-named read-outs stand apart in the source and are kept apart here.

Legend:
[1] = target: T1, D2LR (Homo sapiens, UniProt P14416); assay type: cell-based; settings: GPA GαoA assay
T1 construct: expressed in transfected cells; host or cells: HEK 293T, transient

[2] = target: T1, D2LR; assay type: cell-based; settings: miniG recruitment assay
[3] = target: T2, 5-HT2C (Homo sapiens, UniProt P28335); experiment: 5-HT2C IP-1, antagonist; assay type: cell-based
T2 sequence (P28335 33-458): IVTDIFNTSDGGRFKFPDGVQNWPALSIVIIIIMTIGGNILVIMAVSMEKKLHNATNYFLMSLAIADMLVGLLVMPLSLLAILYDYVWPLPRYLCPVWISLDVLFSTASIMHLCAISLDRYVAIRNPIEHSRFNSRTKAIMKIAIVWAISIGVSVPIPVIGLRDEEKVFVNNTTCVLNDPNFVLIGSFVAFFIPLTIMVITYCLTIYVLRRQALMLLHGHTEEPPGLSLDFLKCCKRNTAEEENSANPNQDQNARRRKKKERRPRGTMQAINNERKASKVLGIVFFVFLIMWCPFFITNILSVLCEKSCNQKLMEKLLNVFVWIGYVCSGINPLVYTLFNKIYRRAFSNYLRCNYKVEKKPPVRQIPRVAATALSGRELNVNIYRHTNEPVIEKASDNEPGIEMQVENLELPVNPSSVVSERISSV

[4] = tested on: cocaine self-administration in rats; experiment: cocaine self-administration under progressive ratio (PR) break-point; assay type: in vivo, Long-Evans rats; settings: i.p. 30 min prior
[5] = target: T3, 5-HT1A (Homo sapiens, UniProt P08908); experiment: 5-HT1A [35S]GTPγS, agonist; assay type: biochemical
T3 sequence (P08908 1-422): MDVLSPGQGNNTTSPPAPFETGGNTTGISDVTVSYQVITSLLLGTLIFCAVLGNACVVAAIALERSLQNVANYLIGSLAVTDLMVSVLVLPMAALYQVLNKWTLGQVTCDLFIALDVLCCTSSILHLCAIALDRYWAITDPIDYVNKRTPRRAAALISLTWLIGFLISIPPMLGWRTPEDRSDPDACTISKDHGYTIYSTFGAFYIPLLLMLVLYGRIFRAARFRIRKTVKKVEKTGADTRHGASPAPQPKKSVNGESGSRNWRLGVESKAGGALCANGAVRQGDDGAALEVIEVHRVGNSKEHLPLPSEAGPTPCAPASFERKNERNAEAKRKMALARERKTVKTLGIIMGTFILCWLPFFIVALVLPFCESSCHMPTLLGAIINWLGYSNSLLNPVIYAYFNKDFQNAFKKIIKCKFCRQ

[6] = target: T2, 5-HT2C; experiment: 5-HT2C IP-1, agonist; assay type: cell-based
[7] = target: T4, 5-HT2B (Homo sapiens, UniProt P41595); experiment: 5-HT2B IP-1, agonist; assay type: cell-based; settings: agonist mode
T4 sequence (P41595 whole entry, species assumed): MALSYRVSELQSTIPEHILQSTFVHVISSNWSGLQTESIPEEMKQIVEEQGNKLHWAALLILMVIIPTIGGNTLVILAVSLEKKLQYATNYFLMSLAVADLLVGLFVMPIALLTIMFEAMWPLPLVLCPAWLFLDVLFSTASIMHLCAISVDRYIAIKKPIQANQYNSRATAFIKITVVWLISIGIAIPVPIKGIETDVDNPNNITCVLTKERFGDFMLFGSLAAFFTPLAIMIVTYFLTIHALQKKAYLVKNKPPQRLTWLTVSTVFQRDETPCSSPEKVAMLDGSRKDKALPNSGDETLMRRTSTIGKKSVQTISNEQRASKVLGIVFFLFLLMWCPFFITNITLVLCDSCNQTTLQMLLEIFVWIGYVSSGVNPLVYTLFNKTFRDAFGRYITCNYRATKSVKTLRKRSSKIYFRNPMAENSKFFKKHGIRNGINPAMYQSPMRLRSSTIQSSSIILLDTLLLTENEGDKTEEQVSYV

[8] = target: T5, 5-HT2A (Homo sapiens, UniProt P28223); experiment: 5-HT2A IP-1, agonist; assay type: cell-based; settings: agonist mode
T5 sequence (P28223 whole entry, species assumed): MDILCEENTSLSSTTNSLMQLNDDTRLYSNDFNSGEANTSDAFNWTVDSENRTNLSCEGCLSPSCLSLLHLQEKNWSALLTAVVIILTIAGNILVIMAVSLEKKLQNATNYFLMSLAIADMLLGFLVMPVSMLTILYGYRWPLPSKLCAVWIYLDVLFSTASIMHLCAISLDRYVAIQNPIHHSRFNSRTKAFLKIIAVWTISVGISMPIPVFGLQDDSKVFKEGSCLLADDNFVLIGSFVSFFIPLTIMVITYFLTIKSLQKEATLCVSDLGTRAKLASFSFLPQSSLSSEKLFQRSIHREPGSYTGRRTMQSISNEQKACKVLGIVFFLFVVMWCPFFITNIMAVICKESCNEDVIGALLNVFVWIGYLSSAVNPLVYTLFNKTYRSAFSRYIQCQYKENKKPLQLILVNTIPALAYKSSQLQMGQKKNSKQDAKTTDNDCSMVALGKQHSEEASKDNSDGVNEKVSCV

[9] = target: T4, 5-HT2B; experiment: 5-HT2B IP-1, antagonist; assay type: cell-based; settings: for 5-HT2B IP-1 Emax ± SEM: antagonist mode
[10] = target: T5, 5-HT2A; assay type: cell-based; settings: antagonist mode
[11] = target: T4, 5-HT2B; experiment: 5-HT2B off-target binding, [3H]5-HT; settings: read-out: 5-HT2B Ki ± SEM
[12] = target: T3, 5-HT1A; experiment: 5-HT1A off-target binding, [3H]-8-OH-DPAT; settings: read-out: 5-HT1A Ki ± SEM
[13] = target: T6, D4R (Homo sapiens, UniProt P21917); experiment: D4R off-target binding, [3H]-spiperone; settings: read-out: D4R Ki ± SEM
T6 sequence (P21917 1-419): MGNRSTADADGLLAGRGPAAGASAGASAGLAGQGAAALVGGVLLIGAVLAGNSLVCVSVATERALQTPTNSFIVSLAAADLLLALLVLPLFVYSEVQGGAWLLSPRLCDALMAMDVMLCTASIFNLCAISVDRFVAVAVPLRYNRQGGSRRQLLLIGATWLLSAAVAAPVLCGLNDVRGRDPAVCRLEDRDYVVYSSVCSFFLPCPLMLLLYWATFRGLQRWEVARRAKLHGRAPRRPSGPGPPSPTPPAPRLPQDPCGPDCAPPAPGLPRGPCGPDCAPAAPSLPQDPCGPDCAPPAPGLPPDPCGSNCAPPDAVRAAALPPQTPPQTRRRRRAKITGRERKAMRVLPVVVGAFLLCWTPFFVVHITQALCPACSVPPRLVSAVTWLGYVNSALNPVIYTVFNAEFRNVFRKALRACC

T1 sequence (P14416 whole entry): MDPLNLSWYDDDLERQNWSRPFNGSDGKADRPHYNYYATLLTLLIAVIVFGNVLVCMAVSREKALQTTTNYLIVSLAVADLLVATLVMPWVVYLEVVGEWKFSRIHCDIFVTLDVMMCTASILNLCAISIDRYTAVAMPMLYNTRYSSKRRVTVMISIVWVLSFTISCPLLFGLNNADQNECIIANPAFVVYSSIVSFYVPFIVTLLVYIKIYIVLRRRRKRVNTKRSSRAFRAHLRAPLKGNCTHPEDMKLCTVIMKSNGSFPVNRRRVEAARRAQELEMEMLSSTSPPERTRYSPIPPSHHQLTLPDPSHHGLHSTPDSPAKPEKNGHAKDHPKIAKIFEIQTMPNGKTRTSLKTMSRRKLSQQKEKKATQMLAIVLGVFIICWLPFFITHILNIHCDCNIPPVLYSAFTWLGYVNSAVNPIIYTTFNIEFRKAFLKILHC

Structure (SMILES)	D2R activity in words, GPA assay [1]	D2R activity in words, miniG assay [2]	IC50 [3] [µM]	5-HT2C IP-1 Emax ± SEM ([3]; antagonist mode) [%]	effect on lever pressing / PR break-point for cocaine [4]	5-HT1A [35S]GTPγS Emax ± SEM ([5]; agonist mode) [%]	5-HT2C IP-1 Emax ± SEM ([6]; agonist mode) [%]	EC50 ([6]; agonist mode, read-out: 5-HT2C IP-1 EC50 ± SEM) [µM]	5-HT2B IP-1 Emax ± SEM [7] [%]	5-HT2A IP-1 Emax ± SEM [8] [%]	5-HT2B IP-1 Emax ± SEM [9] [%]	EC50 [6] [µM]	5-HT2A IP-1 Emax ± SEM [10] [%]	EC50 ([7]; read-out: 5-HT2B IP-1 EC50 ± SEM) [µM]	IC50 [9] [µM]	EC50 [5] [µM]	Ki [11] [µM]	Ki [12] [µM]	Ki [13] [µM]
CN(C)C(=O)N[C@H]1CC[C@H](CCN2CCN(c3cccc(Cl)c3Cl)CC2)CC1 [Compound 6a, 3-(trans-4-(2-(4-(2,3-Dichlorophenyl)piperazin-1-yl)ethyl)cyclohexyl)-1,1-dimethylurea]	maximal effect similar to quinpirole	D2R partial agonists	> 5	9.2 ± 2.7	reduce the reinforcing efficacy of cocaine	89.6 ± 3.6	49.2 ± 6.6	0.215 ± 0.022											
CCc1cccc(N2CCN(CC[C@H]3CC[C@H](NC(=O)CCOC)CC3)CC2)c1Cl [Compound 13b, N-(trans-4-(2-(4-(2-Chloro-3-ethylphenyl)piperazin-1-yl)ethyl)cyclohexyl)-3-methoxypropanamide]									<1	25.9 ± 1.9	100 ± 0	0.0435 ± 0.0053	62.7 ± 5.8						
COCCC(=O)N[C@H]1CC[C@H](CCN2CCN(c3cccc(OC)c3F)CC2)CC1 [Compound 13c, N-(trans-4-(2-(4-(2-Fluoro-3-methoxyphenyl)piperazin-1-yl)ethyl)cyclohexyl)-3-methoxypropanamide]	full agonists	full agonists							<1		82 ± 18			> 10	0.519 ± 0.081	0.121 ± 0.01	0.0296 ± 0.0095	0.0699 ± 0.0017	0.734 ± 0.016
